Experimental data from PubChem BioAssay (NCI).
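Growth conditions: 96-well plates. Treatment: test compound, 48 hours, 5 concentrations. Analysis: linear interpolation between bracketing concentrations; unreached endpoints set to highest concentration. TGI denotes the concentration required for complete inhibition of growth.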

How the values were obtained:
Assay in all cases: NCI tumour cell line growth inhibition, 48 h
[1] = tested on: SF-268 CNS
[2] = tested on: RXF 393 renal
[3] = tested on: K-562 leukemia
[4] = tested on: HOP-92 NSCLC
[5] = tested on: HL-60(TB) leukemia
[6] = tested on: PC-3 prostate
[7] = tested on: NCI-H460 lung
[8] = tested on: NCI-H23 lung
[9] = tested on: RPMI-8226 leukemia
[10] = tested on: OVCAR-5 ovarian
[11] = tested on: SN12C renal
[12] = tested on: OVCAR-8 ovarian
[13] = tested on: HCT-15 colon
[14] = tested on: EKVX NSCLC
[15] = tested on: SF-295 CNS
[16] = tested on: HS 578T breast
[17] = tested on: KM12 colon
[18] = tested on: NCI-H522 lung
[19] = tested on: MDA-MB-231 breast
[20] = tested on: 786-0 renal
[21] = tested on: MDA-N
[22] = tested on: A549 NSCLC
[23] = tested on: MDA-MB-435
[24] = tested on: SK-OV-3 ovarian
[25] = tested on: CCRF-CEM leukemia
[26] = tested on: UO-31 renal
[27] = tested on: NCI/ADR-RES ovarian
[28] = tested on: A498 renal
[29] = tested on: SNB-19 CNS
[30] = tested on: UACC-257 melanoma
[31] = tested on: U251 CNS
[32] = tested on: IGROV1 ovarian
[33] = tested on: CAKI-1 renal
[34] = tested on: SR leukemia
[35] = tested on: SF-539 CNS
[36] = tested on: MOLT-4 leukemia
[37] = tested on: M14 melanoma
[38] = tested on: HCC-2998 colon
[39] = tested on: COLO 205 colon
[40] = tested on: ACHN renal
[41] = tested on: MALME-3M melanoma
[42] = tested on: SW-620 colon
[43] = tested on: OVCAR-4 ovarian
[44] = tested on: HT29 colon
[45] = tested on: TK-10 renal
[46] = tested on: MCF7 breast
[47] = tested on: OVCAR-3 ovarian
[48] = tested on: SNB-75 CNS
[49] = tested on: BT-549 breast
[50] = tested on: SK-MEL-5 melanoma
[51] = tested on: LOX IMVI melanoma
[52] = tested on: NCI-H226 lung
[53] = tested on: HCT-116 colon
[54] = tested on: HOP-62 NSCLC
[55] = tested on: DU-145 prostate
[56] = tested on: T-47D breast
[57] = tested on: SK-MEL-28 melanoma

COc1cc([C@@H]2C3C(=O)c4ccccc4C3[C@@H](c3cc(OC)c(OC)c(OC)c3)C23Cc2ccccc2C3=O)cc(OC)c1OC (some centres not stated)
TGI [1]: > 100 µM | TGI [2]: > 100 µM | TGI [3]: > 100 µM | TGI [4]: > 100 µM | TGI [5]: > 100 µM | TGI [6]: > 100 µM | TGI [7]: > 100 µM | TGI [8]: > 100 µM | TGI [9]: > 100 µM | TGI [10]: > 100 µM | TGI [11]: > 100 µM | TGI [12]: > 100 µM | TGI [13]: > 100 µM | TGI [14]: > 100 µM | TGI [15]: > 100 µM | TGI [16]: > 100 µM | TGI [17]: > 100 µM | TGI [18]: > 100 µM | TGI [19]: > 100 µM | TGI [20]: > 100 µM | TGI [21]: > 100 µM | TGI [22]: > 100 µM | TGI [23]: > 100 µM | TGI [24]: > 100 µM | TGI [25]: > 100 µM | TGI [26]: > 100 µM | TGI [27]: > 100 µM | TGI [28]: > 100 µM | TGI [29]: > 100 µM | TGI [30]: > 100 µM | TGI [31]: > 100 µM | TGI [32]: > 100 µM | TGI [33]: 7.85 µM | TGI [34]: > 100 µM | TGI [35]: > 100 µM | TGI [36]: > 100 µM | TGI [37]: > 100 µM | TGI [38]: > 100 µM | TGI [39]: > 100 µM | TGI [40]: > 100 µM | TGI [41]: > 100 µM | TGI [42]: > 100 µM | TGI [43]: > 100 µM | TGI [44]: > 100 µM | TGI [45]: > 100 µM | TGI [46]: > 100 µM | TGI [47]: > 100 µM | TGI [48]: > 100 µM | TGI [49]: > 100 µM | TGI [50]: > 100 µM | TGI [51]: > 100 µM | TGI [52]: > 100 µM | TGI [53]: > 100 µM | TGI [54]: > 100 µM | TGI [55]: > 100 µM | TGI [56]: > 100 µM | TGI [57]: > 100 µM
